Where a SMILES comes first, the peptide text is derived from it. [ ]: non-standard residue; d: D form. αMeF = C[C@](N)(Cc1ccccc1)C(=O)O; Aib = CC(C)(N)C(=O)O
Legend:
Assay type in all cases: cell-based
Conditions in all cases: n = 2
hGluc-R = target: T1, hGluc-R (Homo sapiens, UniProt P47871); test: cAMP functional assay, cells expressing human glucagon receptor (primary assay)
T1 construct: expressed in transfected cells
Procedure: The biological activities/receptor potencies of the synthetic GLP-1 peptides described herein are suitably tested for biological activity, e.g., stimulation of one or more cellular receptor responses. Stable cell lines expressing human, mouse, rat, or dog GLP-1 receptor (GLP-1R), glucagon receptor (GCGR) or glucose-dependent insulinotropic peptide (gastric inhibitory polypeptide) receptor (GIPR) are generated in HEK293 cells or CHO cells by standard methods.
cAMP assays were performed using “assay buffer”: Assay Buffer: 0.1% BSA (Sigma #A3059) in HBSS (Sigma #H8264) with 25 mM HEPES, pH 7.4 and containing 0.5 mM IBMX (Sigma #17018).
Low protein binding 384-well plates (Greiner #781280) are used to perform eleven 1 in 5 serial dilutions of test samples which are made in assay buffer. All sample dilutions are made in duplicate.
A frozen cryo-vial of cells expressing the receptor of interest is thawed rapidly in a water-bath, transferred to pre-warmed assay buffer and spun at 240× g for 5 minutes. Cells are re-suspended in assay buffer at a batch-dependent optimized concentration (e.g. hGCGR cells at 2×10^5 cells/ml, hGLP-1R and hGIPR cells at 1×10^5 cells /ml).
From the dilution plate, a 5 μL replica is stamped onto a black shallow-well u-bottom 384-well plate (Corning #3676). To this, 5 μL cell suspension is added and the plates incubated at room temperature for 30 minutes.
cAMP levels are measured using a commercially available cAMP dynamic 2 HTRF kit (Cisbio, Cat #62AM4PEJ), following the two step protocol as per manufacturer's recommendations. In brief; anti-cAMP cryptate (donor fluorophore) and cAMP-d2 (acceptor fluorophore) are made up separately by diluting each 1/20 in conjugate & lysis buffer provided in the kit. 5 μL anti-cAMP cryptate is added to all wells of the assay plate, and 5 μL cAMP-d2 is added to all wells except non-specific binding (NSB) wells, to which conjugate and lysis buffer are added. Plates are incubated at room temperature for one hour and then read on an Envision (Perkin Elmer) using excitation wavelength of 320 nm and emission wavelengths of 620 nm & 665 nm. EC50 values of the synthetic peptides determined in cAMP assays are then determined.

hGLP-1R = target: T2, hGLP-1R (Homo sapiens, UniProt P43220); test: cAMP functional assay, cells expressing human GLP-1 receptor (primary assay)
T2 construct: expressed in transfected cells

hGIP-R = target: T3, hGIP-R (Homo sapiens, UniProt P48546); test: cAMP functional assay, cells expressing human GIP receptor (primary assay)
T3 construct: expressed in transfected cells
T3 sequence (P48546 22-466): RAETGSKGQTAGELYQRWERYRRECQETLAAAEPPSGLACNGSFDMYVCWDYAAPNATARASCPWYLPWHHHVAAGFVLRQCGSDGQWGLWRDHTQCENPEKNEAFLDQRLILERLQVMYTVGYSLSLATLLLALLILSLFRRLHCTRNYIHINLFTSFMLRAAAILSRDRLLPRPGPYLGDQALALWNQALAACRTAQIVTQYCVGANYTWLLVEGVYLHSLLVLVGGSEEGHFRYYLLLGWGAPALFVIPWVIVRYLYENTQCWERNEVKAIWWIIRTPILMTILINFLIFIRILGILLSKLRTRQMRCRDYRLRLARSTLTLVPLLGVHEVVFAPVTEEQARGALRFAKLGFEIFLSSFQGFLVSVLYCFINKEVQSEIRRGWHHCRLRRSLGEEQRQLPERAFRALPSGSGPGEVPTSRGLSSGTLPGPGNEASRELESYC

T1 sequence (P47871 26-477): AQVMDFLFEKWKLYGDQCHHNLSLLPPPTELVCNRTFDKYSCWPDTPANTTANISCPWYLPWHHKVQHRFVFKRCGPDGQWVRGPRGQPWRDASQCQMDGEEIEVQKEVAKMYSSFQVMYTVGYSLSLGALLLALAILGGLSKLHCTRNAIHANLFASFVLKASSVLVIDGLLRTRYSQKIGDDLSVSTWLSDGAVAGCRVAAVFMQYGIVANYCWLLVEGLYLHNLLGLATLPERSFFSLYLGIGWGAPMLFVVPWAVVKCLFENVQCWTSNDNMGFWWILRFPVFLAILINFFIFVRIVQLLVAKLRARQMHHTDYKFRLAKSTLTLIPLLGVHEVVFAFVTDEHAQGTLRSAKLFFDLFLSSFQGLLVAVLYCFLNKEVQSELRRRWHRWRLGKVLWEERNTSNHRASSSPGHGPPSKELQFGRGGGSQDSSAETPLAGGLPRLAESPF
T2 sequence (P43220 24-463): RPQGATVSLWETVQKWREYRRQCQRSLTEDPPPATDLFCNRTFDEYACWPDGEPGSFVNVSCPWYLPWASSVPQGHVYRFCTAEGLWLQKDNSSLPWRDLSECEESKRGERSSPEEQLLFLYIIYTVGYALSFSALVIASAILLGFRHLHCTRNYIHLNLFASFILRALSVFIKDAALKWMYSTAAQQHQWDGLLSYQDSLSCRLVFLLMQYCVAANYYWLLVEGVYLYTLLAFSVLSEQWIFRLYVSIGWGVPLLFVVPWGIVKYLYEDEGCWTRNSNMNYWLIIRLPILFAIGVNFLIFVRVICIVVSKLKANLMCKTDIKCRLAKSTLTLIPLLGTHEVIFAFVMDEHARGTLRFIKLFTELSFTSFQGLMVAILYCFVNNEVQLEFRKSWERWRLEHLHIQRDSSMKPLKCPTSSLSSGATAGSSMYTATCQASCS

EC50 (hGluc-R)	EC50 (hGLP-1R)	EC50 (hGIP-R)	SMILES
151 nM	0.0728 nM	151 nM	CC[C@H](C)[C@H](NC(=O)[C@H](Cc1ccccc1)NC(=O)[C@H](CCC(=O)O)NC(=O)[C@H](CCCCN)NC(=O)[C@H](C)NC(=O)[C@H](C)NC(=O)[C@H](CCC(N)=O)NC(=O)CNC(=O)[C@H](CCC(=O)O)NC(=O)[C@H](CC(C)C)NC(=O)[C@H](Cc1ccc(O)cc1)NC(=O)[C@H](CO)NC(=O)[C@H](CO)NC(=O)[C@@H](NC(=O)[C@H](CC(=O)O)NC(=O)[C@H](CO)NC(=O)[C@@H](NC(=O)C(C)(C)NC(=O)[C@@H](NC(=O)CNC(=O)[C@H](CCC(=O)O)NC(=O)C(C)(C)NC(=O)[C@@H](N)Cc1c[nH]cn1)[C@@H](C)O)[C@@H](C)O)C(C)C)C(=O)N[C@@H](C)C(=O)N[C@@H](Cc1c[nH]c2ccccc12)C(=O)N[C@@H](CC(C)C)C(=O)N[C@H](C(=O)N[C@@H](CCCCN)C(=O)NCC(=O)N[C@@H](CCCNC(=N)N)C(N)=O)C(C)C [SEQ ID NO: 7, H-(Aib)^2-EGT^5-(Aib)^6-TSDV^10 SSYLE^15 GQAAK^20 EFIAW^25 LVKGR^30]
156 nM	0.0229 nM	156 nM	CC[C@H](C)[C@H](NC(=O)[C@H](Cc1ccccc1)NC(=O)[C@H](CCC(=O)O)NC(=O)[C@H](CCCCN)NC(=O)[C@H](C)NC(=O)[C@H](C)NC(=O)[C@H](CCC(N)=O)NC(=O)CNC(=O)[C@H](CCC(=O)O)NC(=O)[C@H](CC(C)C)NC(=O)[C@](C)(Cc1ccc(O)cc1)NC(=O)[C@H](CO)NC(=O)[C@H](CO)NC(=O)[C@@H](NC(=O)[C@H](CC(=O)O)NC(=O)[C@H](CO)NC(=O)[C@@H](NC(=O)[C@H](Cc1ccccc1)NC(=O)[C@@H](NC(=O)CNC(=O)[C@H](CCC(=O)O)NC(=O)C(C)(C)NC(=O)[C@@H](N)Cc1c[nH]cn1)[C@@H](C)O)[C@@H](C)O)C(C)C)C(=O)N[C@@H](C)C(=O)N[C@@H](Cc1c[nH]c2ccccc12)C(=O)N[C@@H](CC(C)C)C(=O)N[C@H](C(=O)N[C@@H](CCCCN)C(=O)NCC(=O)N[C@@H](CCCNC(=N)N)C(N)=O)C(C)C [SEQ ID NO: 8, H-(Aib)^2-EGT^5 FTSDV^10 SS-(α-MeY)^13-LE^15 GQAAK^20 EFIAW^25 LVKGR^30]
141 nM	0.0338 nM	141 nM	CC[C@H](C)[C@H](NC(=O)[C@H](Cc1ccccc1)NC(=O)[C@H](CCC(=O)O)NC(=O)[C@H](CCCCN)NC(=O)[C@H](C)NC(=O)[C@H](C)NC(=O)[C@H](CCC(N)=O)NC(=O)CNC(=O)[C@H](CCC(=O)O)NC(=O)[C@H](CC(C)C)NC(=O)[C@](C)(Cc1ccccc1)NC(=O)[C@H](CO)NC(=O)[C@H](CO)NC(=O)[C@@H](NC(=O)[C@H](CC(=O)O)NC(=O)[C@H](CO)NC(=O)[C@@H](NC(=O)[C@H](Cc1ccccc1)NC(=O)[C@@H](NC(=O)CNC(=O)[C@H](CCC(=O)O)NC(=O)C(C)(C)NC(=O)[C@@H](N)Cc1c[nH]cn1)[C@@H](C)O)[C@@H](C)O)C(C)C)C(=O)N[C@@H](C)C(=O)N[C@@H](Cc1c[nH]c2ccccc12)C(=O)N[C@@H](CC(C)C)C(=O)N[C@H](C(=O)N[C@@H](CCCCN)C(=O)NCC(=O)N[C@@H](CCCNC(=N)N)C(N)=O)C(C)C [SEQ ID NO: 9, H-(Aib)^2-EGT^5 FTSDV^10 SS-(α-MeF)^13-LE^15 GQAAK^20 EFIAW^25 LVKGR^30] (H-H[Aib]EGTFTSDVSS[αMeF]LEGQAAKEFIAWLVKGR-NH2)
